Measured values taken from patent publication US6855807B1 (priority 1999, dated 2005).
Read-outs that look alike come from different tables or passages of the source.

Tests used:
kappa opioid receptor = biological target: T1, kappa opioid receptor (Rattus norvegicus, UniProt P34975); test: biochemical; format: binding
T1 construct: expressed in transfected cells; host or cells: HEK293

kappa-delta heterodimer = biological target: T2, kappa-delta heterodimer (UniProt P32300+P34975); test: biochemical; format: binding, rat kappa, mouse delta
T2 construct: myc; FLAG; expressed in transfected cells; host or cells: HEK293
T2 sequence (P34975 whole entry): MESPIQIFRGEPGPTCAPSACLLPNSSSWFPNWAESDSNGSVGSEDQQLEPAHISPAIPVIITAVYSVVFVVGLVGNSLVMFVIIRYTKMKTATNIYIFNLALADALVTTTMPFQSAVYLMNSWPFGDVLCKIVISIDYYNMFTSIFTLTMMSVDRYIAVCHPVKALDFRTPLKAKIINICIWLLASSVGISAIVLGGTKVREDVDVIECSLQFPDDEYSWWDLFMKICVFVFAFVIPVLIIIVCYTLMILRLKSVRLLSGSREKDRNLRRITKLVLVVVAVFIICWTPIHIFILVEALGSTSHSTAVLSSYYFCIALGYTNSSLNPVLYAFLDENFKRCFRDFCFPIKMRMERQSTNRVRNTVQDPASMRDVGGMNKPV
T2 sequence (P32300 whole entry): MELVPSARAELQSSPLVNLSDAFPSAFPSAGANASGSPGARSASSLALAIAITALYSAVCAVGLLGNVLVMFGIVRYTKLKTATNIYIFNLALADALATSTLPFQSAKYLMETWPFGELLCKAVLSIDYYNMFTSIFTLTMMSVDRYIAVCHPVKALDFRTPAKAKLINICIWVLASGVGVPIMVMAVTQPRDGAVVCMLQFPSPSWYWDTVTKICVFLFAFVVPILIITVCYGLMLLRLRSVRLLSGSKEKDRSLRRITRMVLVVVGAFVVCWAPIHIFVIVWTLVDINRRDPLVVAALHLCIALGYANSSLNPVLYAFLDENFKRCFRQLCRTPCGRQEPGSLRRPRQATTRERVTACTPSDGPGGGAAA

T1 sequence (P34975 whole entry): as the sequence (P34975 whole entry) above

| Structure (SMILES) | Ki (kappa opioid receptor) [nM] | affinity of kappa receptors (in words) (kappa opioid receptor) | Ki (kappa opioid receptor; read-out: Kappa (Ki)) [nM] | Ki (kappa-delta heterodimer; read-out: Kappa-Delta (Ki)) [nM] | Ki (kappa-delta heterodimer; Kappa-Delta (Ki)) [nM] |
| --- | --- | --- | --- | --- | --- |
| Oc1ccc2c3c1O[C@H]1c4[nH]c5c(c4C[C@@]4(O)[C@@H](C2)N(CC2CC2)CC[C@]314)C[C@@]1(O)[C@H]2Cc3ccc(O)c4c3[C@@]1(CCN2CC1CC1)[C@H]5O4 [nor-BNI, nor-binaltorphimine] | 4.9 ± 0.3 | high affinities |  |  |  |
| O=C1C(=Cc2ccccc2)C[C@@]2(O)[C@H]3Cc4ccc(O)c5c4[C@@]2(CCN3CC2CC2)[C@H]1O5 [BNTX, 7-Benzylidenenaltrexone] |  |  | 172 ± 19 | 98 ± 19 |  |
| Oc1ccc2c3c1O[C@H]1c4[nH]c5ccccc5c4C[C@@]4(O)[C@@H](C2)N(CC2CC2)CC[C@]314 [Naltrinole] | 44.3 ± 1.1 |  |  |  | 44 ± 1.1 |
| CC[C@]12CCN(CC3CC3)[C@H](C(=O)c3ccc(O)cc31)[C@@H]2C [EKC, ethylketocyclazocine] | 5.7 ± 0.79 |  |  |  | 2.6 ± 0.2 |
| CCC12CCN(CC3(O)CC3)C(Cc3ccc(O)cc31)C2(C)C (stereo not shown) [Bremazocine] | 0.4 ± 0.11 |  |  |  | 1.2 ± 0.1 |
